Measurements taken from patent US20130065818A1, “Arylamide Compounds And Compositions And Uses Thereof” (POLYMEDIX, priority 2006, published 2013).
≈ marks a conversion by molar mass, not a printed value. Where two headings read alike, the source gives them in different places.

Test system: S. aureus ATCC 27660
Assay: MIC, control bacteria (Example 8)
Format: cell-based
Description: • Mueller-Hinton Broth in tubes was inoculated with 25 ocular isolates of Staphylococcus aureus fluoroquinolone-susceptible, Staphylococcus aureus fluoroquinolone-resistant, Staphylococcus epidermidis (Coagulase-negative Staphylococcus) fluoroquinolone-susceptible, Staphylococcus epidermidis (Coagulase-negative Staphylococcus) fluoroquinolone-resistant, Pseudomonas aeruginosa and Serratia marcescens, plus two controls (Staphylococcus aureus and E. coli) and incubated at 37° C. overnight on a shaker set at 250 rpm.
Control Bacteria—The two control bacteria (Staphylococcus aureus and E. coli) were treated as above.
Control Bacteria Set #1—this set of control bacteria were treated as the Streptococcus pneumoniae, Streptococcus viridans and Moraxella species (including Moraxella catarrhalis) test isolates above; the control bacteria underwent the same conditions as the test Streptococcus pneumoniae, Streptococcus viridans and Moraxella species (including Moraxella catarrhalis) isolates. This set of control bacteria was to determine whether there was a difference in the MICs by performing the MIC determinations in 2% lysed horse red blood cells with the standard method performed in Mueller-Hinton broth.
Control Bacteria Set #2—the control bacteria were added to 5 ml of Mueller-Hinton Broth without the 2% lysed horse red blood cells to achieve the standard inoculum concentration. This set of control bacteria is the normal control to determine whether the compounds are at the target MICs.
Control Bacteria Set #1—this set of control bacteria were treated as the Haemophilus influenzae test isolates above; the control bacteria underwent the same conditions as the test Haemophilus influenzae isolates. This set of control bacteria is to determine whether there was a difference in the MICs by performing the MIC determinations in HTM broth with the standard method performed in Mueller-Hinton broth.
Control Bacteria Set #2—the control bacteria were added to 5 ml of Mueller-Hinton Broth to achieve the standard inoculum concentration. This set of control bacteria is the normal control to determine whether the compounds are at the target MICs.
Ninety μl of the bacterial suspensions was dispensed in each well from column 1 to column 12. Each bacterial isolate was placed in one row of a 96 well polypropylene plate containing the test agents. The plates were placed on shaker at 15 minutes at room temperature, and then incubated at 37° C. overnight. MICs were determined visually as the lowest concentration of drug that inhibits visible bacterial growth.

[1] = Control Bacteria S. aureus ATCC 27660

N=C(N)NCCCCC(=O)Nc1cc(C(F)(F)F)cc(NC(=O)c2cnc(C(=O)Nc3cc(C(F)(F)F)cc(NC(=O)CCCCNC(=N)N)c3SCCN)cn2)c1SCCN [Oligomer 5]
Decrease of activity by addition of 2% lysed horse red blood cells to Mueller-Hinton broth [1]: increase or have no effect
Decrease of activity by use of HTM broth [1]: approximately 8 fold
MIC (Control Bacteria Set #1, run with Haemophilus influenzae MIC test, read-out: MIC): 4 µg/mL (≈ 4.36 µM)
MIC (S. aureus ATCC 27660): 0.78 µg/mL (≈ 0.851 µM)
MIC (S. aureus ATCC 27660, Control for MIC Test SA-FQR, first batch): 8 µg/mL (≈ 8.72 µM)
MIC (S. aureus ATCC 27660, Control for MIC Test SA-FQS, first batch): 16 µg/mL (≈ 17.4 µM)
MIC (S. aureus ATCC 27660, new batches, Control Only 1): 0.25 µg/mL (≈ 0.273 µM)
MIC (S. aureus ATCC 27660, new batches, Control Only 2): 0.25 µg/mL (≈ 0.273 µM)
MIC (S. aureus ATCC 27660, new batches, Control Only 3): 0.5 µg/mL (≈ 0.545 µM)
MIC (S. aureus ATCC 27660, new batches, Control Only 4): 0.5 µg/mL (≈ 0.545 µM)
MIC (Staphylococcus aureus, ATCC27660, Control Bacteria Set #1, run with Moraxella MIC test, read-out: MIC): 1 µg/mL (≈ 1.09 µM)
MIC (Staphylococcus aureus, ATCC27660, Control Only 1, read-out: MIC of control bacteria on day of MIC testing): 0.25 µg/mL
MIC (Staphylococcus aureus, ATCC27660, Control Only 2, read-out: MIC of control bacteria on day of MIC testing): 0.25 µg/mL
MIC (Staphylococcus aureus, ATCC27660, Control Only 3, read-out: MIC of control bacteria on day of MIC testing): 0.5 µg/mL
MIC (Staphylococcus aureus, ATCC27660, Control Only 4, read-out: MIC of control bacteria on day of MIC testing): 0.5 µg/mL
MIC (Staphylococcus aureus, ATCC27660, S. aureus ATCC 27660, Control Bacteria Set #1 (same conditions as test isolates), run with Streptococcus pneumoniae MIC test, read-out: MIC): 1 µg/mL (≈ 1.09 µM)
MIC (Staphylococcus aureus, ATCC27660, S. aureus ATCC 27660, Control Bacteria Set #1 (same conditions as test isolates), run with Streptococcus viridans group MIC test, read-out: MIC): 1 µg/mL (≈ 1.09 µM)
MIC (Staphylococcus aureus, ATCC27660, S. aureus ATCC 27660, Control Bacteria Set #2 (Mueller-Hinton Broth), run with Streptococcus pneumoniae MIC test, read-out: MIC): 2 µg/mL (≈ 2.18 µM)
MIC (Staphylococcus aureus, ATCC27660, S. aureus ATCC 27660, Control Bacteria Set #2 (Mueller-Hinton Broth), run with Streptococcus viridans group MIC test, read-out: MIC): 1 µg/mL (≈ 1.09 µM)
MIC (Staphylococcus aureus, ATCC27660, S. aureus ATCC 27660, control bacteria run with Pseudomonas aeruginosa MIC test, read-out: MIC): 0.25 µg/mL (≈ 0.273 µM)
MIC (Staphylococcus aureus, ATCC27660, S. aureus ATCC 27660, control bacteria run with S. aureus fluoroquinolone-resistant MIC test, read-out: MIC): 8 µg/mL (≈ 8.72 µM)
MIC (Staphylococcus aureus, ATCC27660, S. aureus ATCC 27660, control bacteria run with S. aureus fluoroquinolone-susceptible MIC test, read-out: MIC): 16 µg/mL (≈ 17.4 µM)
MIC (Staphylococcus aureus, ATCC27660, S. aureus ATCC 27660, control bacteria run with S. epidermidis fluoroquinolone-resistant MIC test, read-out: MIC): 0.25 µg/mL (≈ 0.273 µM)
MIC (Staphylococcus aureus, ATCC27660, S. aureus ATCC 27660, control bacteria run with S. epidermidis fluoroquinolone-susceptible MIC test, read-out: MIC): 0.25 µg/mL (≈ 0.273 µM)
MIC (Staphylococcus aureus, ATCC27660, S. aureus ATCC 27660, control bacteria run with Serratia marcescens MIC test, read-out: MIC): 0.5 µg/mL (≈ 0.545 µM)
MIC (Staphylococcus aureus, ATCC27660, S. aureus ATCC 27660, MIC previously obtained (target MIC), printed in parentheses, read-out: MIC for Control Bacteria within the parentheses): 0.78 µg/mL (≈ 0.851 µM)
MIC (Staphylococcus aureus, ATCC27660, S. aureus ATCC27660, read-out: MIC): 0.78 µg/mL (≈ 0.851 µM)
MIC (Staphylococcus aureus, ATCC27660, control for MIC test HI (Control Bacteria Set #2), read-out: MIC of control bacteria on day of MIC testing): 0.5 µg/mL
MIC (Staphylococcus aureus, ATCC27660, control for MIC test MS (Control Bacteria Set #2), read-out: MIC of control bacteria on day of MIC testing): 0.5 µg/mL
MIC (Staphylococcus aureus, ATCC27660, control for MIC test PA, read-out: MIC of control bacteria on day of MIC testing): 0.25 µg/mL
MIC (Staphylococcus aureus, ATCC27660, control for MIC test SA-FQR, read-out: MIC of control bacteria on day of MIC testing): 8 µg/mL
MIC (Staphylococcus aureus, ATCC27660, control for MIC test SA-FQS, read-out: MIC of control bacteria on day of MIC testing): 16 µg/mL
MIC (Staphylococcus aureus, ATCC27660, control for MIC test SE-FQR, read-out: MIC of control bacteria on day of MIC testing): 0.25 µg/mL
MIC (Staphylococcus aureus, ATCC27660, control for MIC test SE-FQS, read-out: MIC of control bacteria on day of MIC testing): 0.25 µg/mL
MIC (Staphylococcus aureus, ATCC27660, control for MIC test SM, read-out: MIC of control bacteria on day of MIC testing): 0.5 µg/mL
MIC (Staphylococcus aureus, ATCC27660, control for MIC test SP, read-out: MIC of control bacteria on day of MIC testing): 2 µg/mL
MIC (Staphylococcus aureus, ATCC27660, control for MIC test SV, read-out: MIC of control bacteria on day of MIC testing): 1 µg/mL
MIC (Staphylococcus aureus, ATCC27660, reference MIC printed in parentheses beside the day's control value, read-out: MIC for Control Bacteria (within the parentheses)): 0.78 µg/mL (≈ 0.851 µM)
